Test results taken from patent US20030212115A1, “Remedies for inflammatory bowel diseases” (priority 2000, published 2003).

How the values were obtained:
[1] = system: acetate-caused colitis; assay: Acetate-caused colitis model; type: in vivo, Syrian strain male hamster; settings: for area of ulcer: three times (18 h and 1 h before, 6 h after cause of colitis), anatomized 24 hours later, FIG. 1; for amount of the haemoglobin (index of the enteric hemorrhage): three times, washing supernatant of large intestine, 24 hours later, FIG. 2
Experimental: (1) Acetate-Caused Colitis Model.
(§1) After 1% aqueous acetic acid (10 ml/kg) is injected from anus of Syrian strain male hamster (7 weeks of ages) into large intestine with a flexible, oral sonde for rat, colitis was caused by clipping anus for 30 minutes. Distilled water was similarly injected into a normal group.
0.5% CMC (10 ml/kg) was orally administered to the normal group and the control group, and 10, 30 and 100 mg/10 ml/kg of a test drug suspended into 0.5% CMC were orally administered to the group administrated test drug three times in total, 18 hours and 1 hour before cause of colitis and 6 hours after cause, respectively.
They were anatomized 24 hours later, and large intestines of 7 cm length were sampled from anus. Then, these intestinals were incised, and these enterics were washed by physiological salt solution (5 ml). they were taken a picture of incised large intestines, and ulcer area (cm^2) was calculated by the image analysis. Moreover, the washing supernatant of large intestine was supplied for the measurement of the amount of the haemoglobin (index of the amount of the enteric hemorrhage).
As a test drug, 2-[5-amino-6-oxo-2-phenyl-1,6-dihydro-1-pyrimidinyl]-N-[1-[[5-(t-butyl)-1,3,4-oxadiazole-2-yl]carbonyl]-2-methylpropyl]acetamide (Compound 34) was used. FIG. 1 and FIG. 2 show the results.

[2] = system: picrylsulfonic acid (TNBS)-caused colitis; assay: Picrylsulfonic acid (TNBS)-caused colitis model; type: in vivo, Syrian strain male hamster; settings: for area of the ulcer: once a day before cause, then twice a day, anatomized 5 days later, FIG. 3; for amount of the haemoglobin (index of the enteric hemorrhage): supernatant of washing of large intestine, 5 days later, FIG. 4
Experimental: (2) Picrylsulfonic Acid (TNBS)-Caused Colitis Model.
as §1, with “90 mg/ml of TNBS/isotonic solution (with 15 vol % ethanol) liquor (0.1 ml/body)” for “1% aqueous acetic acid (10 ml/kg)”
0.5% CMC (10 ml/kg) was orally administered to the normal group and the control group, and 25, 50 and 100 mg/10 ml/kg doses of a test drug suspended into 0.5% CMC were orally administered to the group administrated test drug once a day before cause of colitis and twice a day until the day of cause before anatomy, respectively.
They were anatomized 5 days later, and large intestines of 3 cm length were sampled from anus. Then, these intestinals were incised, and these enterics were washed by physiological salt solution (2 ml). they were taken a picture of incised large intestines, and ulcer area (cm^2) was calculated by the image analysis. Moreover, the supernatant of washing of large intestine was supplied to the measurement of the amount of the haemoglobin (index of the amount of the enteric hemorrhage).
As a test drug, compound 34 was used as well as example (1). FIG. 3 and FIG. 4 show the results.

CC(C)C(NC(=O)Cn1c(-c2ccccc2)ncc(N)c1=O)C(=O)c1nnc(C(C)(C)C)o1 (centres unmarked) [compound 34, 2-[5-amino-6-oxo-2-phenyl-1,6-dihydro-1-pyrimidinyl]-N-[1-[[5-(t-butyl)-1,3,4-oxadiazole-2-yl]carbonyl]-2-methylpropyl]acetamide]
intentionally suppressed: area of ulcer ([1]; 30 mg/kg orally) | amount of the haemoglobin (index of the enteric hemorrhage) ([1]; 30 mg/kg orally) | area of ulcer ([1]; 100 mg/kg orally) | amount of the haemoglobin (index of the enteric hemorrhage) ([1]; 100 mg/kg orally) | area of the ulcer ([2]; 50 mg/kg orally) | amount of the haemoglobin (index of the enteric hemorrhage) ([2]; 50 mg/kg orally) | area of the ulcer ([2]; 100 mg/kg orally) | amount of the haemoglobin (index of the enteric hemorrhage) ([2]; 100 mg/kg orally)
